Experimental data: ChEMBL document CHEMBL3046517, “Synthesis and antimicrobial study of fluoroquinolone-based 4-thiazolidinones” (2010)
In brackets after ≈: the same amount, converted by molar mass.

Columns and labels:
Assay type in all cases: functional
Streptococcus pyogenes = experiment: Antibacterial activity against Streptococcus pyogenes by broth dilution method
Staphylococcus aureus = experiment: Antibacterial activity against Staphylococcus aureus by broth dilution method
Aspergillus clavatus = experiment: Antifungal activity against Aspergillus clavatus by broth dilution method
Aspergillus niger = experiment: Antifungal activity against Aspergillus niger by broth dilution method
Pseudomonas aeruginosa = experiment: Antibacterial activity against Pseudomonas aeruginosa by broth dilution method
Escherichia coli = experiment: Antibacterial activity against Escherichia coli by broth dilution method
Candida albicans = experiment: Antifungal activity against Candida albicans by broth dilution method

Compound | MIC (Streptococcus pyogenes) [µg/mL] | MIC (Staphylococcus aureus) [µg/mL] | MIC (Aspergillus clavatus) [µg/mL] | MIC (Aspergillus niger) [µg/mL] | MIC (Pseudomonas aeruginosa) [µg/mL] | MIC (Escherichia coli) [µg/mL] | MIC (Candida albicans) [µg/mL]
COc1ccc(N2CCN(c3cc4c(cc3F)c(=O)c(C(=O)NN3C(=O)CSC3c3ccc(Cl)cc3)cn4C3CC3)CC2)cc1 (centres undefined) | 1000 (≈ 1540 µM) | 100 (≈ 154 µM) | > 1000 | 500 (≈ 771 µM) | 500 (≈ 771 µM) | 500 (≈ 771 µM) | 1000 (≈ 1540 µM)
O=C(N/N=C\c1ccc(F)cc1)c1cn(C2CC2)c2cc(Cl)c(F)cc2c1=O | 500 (≈ 1240 µM) | 500 (≈ 1240 µM) | 1000 (≈ 2490 µM) | 1000 (≈ 2490 µM) | 500 (≈ 1240 µM) | 500 (≈ 1240 µM) | 1000 (≈ 2490 µM)
COc1ccc(N2CCN(c3cc4c(cc3F)c(=O)c(C(=O)NN3C(=O)CSC3c3cccc([N+](=O)[O-])c3)cn4C3CC3)CC2)cc1 (centres undefined) | 1000 (≈ 1520 µM) | 500 (≈ 759 µM) | > 1000 | 1000 (≈ 1520 µM) | 200 (≈ 304 µM) | 500 (≈ 759 µM) | 1000 (≈ 1520 µM)
O=C(N/N=C\c1ccccc1[N+](=O)[O-])c1cn(C2CC2)c2cc(Cl)c(F)cc2c1=O | 200 (≈ 466 µM) | 100 (≈ 233 µM) | > 1000 | 1000 (≈ 2330 µM) | 200 (≈ 466 µM) | 500 (≈ 1170 µM) | 500 (≈ 1170 µM)
NYSTATIN |  |  | 100 | 100 |  |  | 100
O=C(N/N=C\c1ccc(O)cc1)c1cn(C2CC2)c2cc(Cl)c(F)cc2c1=O | 500 (≈ 1250 µM) | 500 (≈ 1250 µM) | 500 (≈ 1250 µM) | 500 (≈ 1250 µM) | 500 (≈ 1250 µM) | 500 (≈ 1250 µM) | 500 (≈ 1250 µM)
GENTAMICIN | 0.5 | 0.25 |  |  | 1 | 0.05 | 
COc1ccc(N2CCN(c3cc4c(cc3F)c(=O)c(C(=O)N/N=C\c3ccccc3)cn4C3CC3)CC2)cc1 | 500 (≈ 927 µM) | 1000 (≈ 1850 µM) | 500 (≈ 927 µM) | 500 (≈ 927 µM) | 500 (≈ 927 µM) | 500 (≈ 927 µM) | 500 (≈ 927 µM)
COc1ccc(N2CCN(c3cc4c(cc3F)c(=O)c(C(=O)NN3C(=O)CSC3c3ccccc3Cl)cn4C3CC3)CC2)cc1 (centres undefined) | 100 (≈ 154 µM) | 500 (≈ 771 µM) | 1000 (≈ 1540 µM) | > 1000 | 500 (≈ 771 µM) | 1000 (≈ 1540 µM) | 1000 (≈ 1540 µM)
COc1ccc(N2CCN(c3cc4c(cc3F)c(=O)c(C(=O)N/N=C\c3ccc(O)c(OC)c3)cn4C3CC3)CC2)cc1 | 500 (≈ 854 µM) | 500 (≈ 854 µM) | 1000 (≈ 1710 µM) | 1000 (≈ 1710 µM) | 200 (≈ 342 µM) | 150 (≈ 256 µM) | 1000 (≈ 1710 µM)
COc1ccc(N2CCN(c3cc4c(cc3F)c(=O)c(C(=O)N/N=C\c3ccc(O)cc3)cn4C3CC3)CC2)cc1 | 1000 (≈ 1800 µM) | 500 (≈ 900 µM) | 1000 (≈ 1800 µM) | 1000 (≈ 1800 µM) | 200 (≈ 360 µM) | 500 (≈ 900 µM) | 1000 (≈ 1800 µM)
COc1ccc(N2CCN(c3cc4c(cc3F)c(=O)c(C(=O)N/N=C\c3ccc(Cl)cc3)cn4C3CC3)CC2)cc1 | 500 (≈ 871 µM) | 1000 (≈ 1740 µM) | 1000 (≈ 1740 µM) | 1000 (≈ 1740 µM) | 1000 (≈ 1740 µM) | 1000 (≈ 1740 µM) | 1000 (≈ 1740 µM)
COc1ccc(N2CCN(c3cc4c(cc3F)c(=O)c(C(=O)NN3C(=O)CSC3c3ccc(O)cc3)cn4C3CC3)CC2)cc1 (centres undefined) | 500 (≈ 794 µM) | 500 (≈ 794 µM) | > 1000 | 1000 (≈ 1590 µM) | 500 (≈ 794 µM) | 500 (≈ 794 µM) | 1000 (≈ 1590 µM)
O=C(N/N=C\c1ccccc1)c1cn(C2CC2)c2cc(Cl)c(F)cc2c1=O | 1000 (≈ 2610 µM) | 500 (≈ 1300 µM) | 1000 (≈ 2610 µM) | 1000 (≈ 2610 µM) | 1000 (≈ 2610 µM) | 500 (≈ 1300 µM) | 500 (≈ 1300 µM)
O=C(O)c1cn(C2CC2)c2cc(N3CCNCC3)c(F)cc2c1=O [CIPROFLOXACIN] | 50 (≈ 151 µM) | 50 (≈ 151 µM) |  |  |  | 25 (≈ 75.4 µM) | 
COc1ccc(C2SCC(=O)N2NC(=O)c2cn(C3CC3)c3cc(N4CCN(c5ccc(OC)cc5)CC4)c(F)cc3c2=O)cc1 (centres undefined) | 1000 (≈ 1550 µM) | 1000 (≈ 1550 µM) | > 1000 | 500 (≈ 777 µM) | 500 (≈ 777 µM) | 500 (≈ 777 µM) | 500 (≈ 777 µM)
O=C(N/N=C\c1ccc(Cl)cc1)c1cn(C2CC2)c2cc(Cl)c(F)cc2c1=O | 1000 (≈ 2390 µM) | 1000 (≈ 2390 µM) | 500 (≈ 1200 µM) | 500 (≈ 1200 µM) | 1000 (≈ 2390 µM) | 1000 (≈ 2390 µM) | 1000 (≈ 2390 µM)
COc1ccc(/C=N\NC(=O)c2cn(C3CC3)c3cc(N4CCN(c5ccc(OC)cc5)CC4)c(F)cc3c2=O)cc1 | 100 (≈ 176 µM) | 500 (≈ 878 µM) | > 1000 | > 1000 | 200 (≈ 351 µM) | 100 (≈ 176 µM) | 500 (≈ 878 µM)
COc1ccc(N2CCN(c3cc4c(cc3F)c(=O)c(C(=O)N/N=C\c3ccccc3O)cn4C3CC3)CC2)cc1 | 500 (≈ 900 µM) | 500 (≈ 900 µM) | > 1000 | 500 (≈ 900 µM) | 500 (≈ 900 µM) | 500 (≈ 900 µM) | 500 (≈ 900 µM)
COc1ccc(N2CCN(c3cc4c(cc3F)c(=O)c(C(=O)N/N=C\c3ccc(F)cc3)cn4C3CC3)CC2)cc1 | 500 (≈ 897 µM) | 500 (≈ 897 µM) | 500 (≈ 897 µM) | 500 (≈ 897 µM) | 500 (≈ 897 µM) | 250 (≈ 448 µM) | 500 (≈ 897 µM)
